Experimental data as given in patent US20030022812A1, “Treating pain by targeting hyperpolarization-activated, cyclic nucleotide-gated channels” (priority 2001, published 2003).
Entries after “also recorded” stand apart in the source; their conditions may differ.

Tested on: SNL rats
Assay: Tactile allodynia (von Frey) in SNL (Chung) neuropathic pain model
Type: in vivo, rat
Description: Preparation of SNL (spinal nerve ligation) model: All studies were conducted in keeping with the guidelines of the Institutional Animal Care Committees of the University of California, San Diego and RWJPRI. Male Harlan Sprague-Dawley rats, 100-150 g, were housed in cages with solid bottoms and sawdust bedding, with a 12/12 h reversed light cycle (lights on 2100-900), and allowed free access to food pellets and water. Animals were housed in groups of 2 after surgical interventions. A surgical neuropathy was created as follows, to create a model commonly referred to as the SNL, or spinal nerve ligation model, also commonly referred to as the Chung model. Under isoflurane/oxygen anesthesia, a dorsal midline incision was made from approximately L3-S2. Using a mixture of sharp and blunt dissection, the left L6/S1 posterior interarticular process was exposed and resected to permit adequate visualization of the L6 transverse process, which was gently removed. Careful teasing of the underlying fascia exposed the left L4 and L5 spinal nerves distal to their emergence from the intervertebral foramina. The nerves were gently separated, and the L5 and in some cases either the L4 (for in vitro electrophysiology recordings) or the L6 nerve firmly ligated with 6-0 silk suture material. The wound was then inspected for hemostasis and closed in two layers. Animals with thresholds greater than 4 g were considered unsuccessful preparations(Chaplan et al., (1994) Journal of Neuroscience Methods 53: 55-63).
Behavioral assessment: Behavioral signs of allodynia were documented as follows. Briefly, rats were transferred to a testing cage with a wire mesh bottom and allowed to acclimate for 10-15 minutes. […] Lifting of the paw was recorded as a positive response and the next lightest filament chosen for the next measurement. […]

CCN(c1ccccc1)c1cc(=NC)n(C)c(C)n1.Cl [ZD7288]
efficacy of allodynia suppression (% MPE) (i.p.): 75.7+/−15.4% | suppression of tactile allodynia (i.p. 1, 3, 10 mg/kg): blocked in a dose dependent manner; also recorded: suppressed the tactile allodynia | untoward behavioral effects / motor function (i.p., up to 10 mg/kg): No untoward behavioral effects; also recorded: without overt adverse effects on behavior
